Assay results published in US12258338B2, “Modulators of the integrated stress response pathway” (EVOTEC INTERNATIONAL GMBH, priority 2019, dated 2025).
Converted amounts (≈) assume the structure as drawn. Where two headings read alike, the source gives them in different places.

Tests used:
ATF4 = test: HEK-ATF4 High Content Imaging assay (prevention of Tunicamycin induced ISR; ATF4 signal ratio between nucleus and cytoplasm); assay type: cell-based; settings: Homo sapiens; Wild-type HEK293 cells, Tunicamycin induced ISR, 6 h; read-out: IIEK-ATF4 Activity
Method: HEK-ATF4 High Content Imaging Assay
Example compounds were tested in the HEK-ATF4 High Content Imaging assay to assess their pharmacological potency to prevent Tunicamycin induced ISR. Wild-type HEK293 cells were plated in 384-well imaging assay plates at a density of 12,000 cells per well in growth medium (containing DMEM/F12, 10% FBS, 2 mM L-Glutamine, 100 U/mL Penicillin-100 μg/mL Streptomycin) and incubated at 37° C., 5% CO2. 24 h later, the medium was changed to 50 μL assay medium per well (DMEM/F12, 0.3% FBS, 2 mM L-Glutamine, 100 U/mL Penicillin-100 μg/mL Streptomycin). Example compounds were serially diluted in DMSO, spotted into intermediate plates and prediluted with assay medium containing 3.3 μM Tunicamycin to give an 11-fold excess of final assay concentration. In addition to the example compound testing area, the plates also contained multiples of control wells for assay normalization purposes, wells containing Tunicamycin but no example compounds (High control), as well as wells containing neither example compound nor Tunicamycin (Low control). The assay was started by transferring 5 μL from the intermediate plate into the assay plates, followed by incubation for 6 h at 37° C., 5% CO2. Subsequently, cells were fixed (4% PFA in PBS, 20 min at r.t.) and submitted to indirect ATF4 immunofluorescence staining (primary antibody rabbit anti ATF4, clone D4B8, Cell Signaling Technologies; secondary antibody Alexa Fluor 488 goat anti-rabbit IgG (H+L), Thermofisher Scientific). Nuclei were stained using Hoechst dye (Thermofisher Scientific), and plates were imaged on an Opera Phenix High Content imaging platform equipped with 405 nm and 488 nm excitation. Finally, images were analyzed using script based algorithms. The main readout HEK-ATF4 monitored the ATF4 signal ratio between nucleus and cytoplasm. Tunicamycin induced an increase in the overall ATF4 ratio signal, which was prevented by ISR modulating example compounds. In addition, HEK-CellCount readout was derived from counting the number of stained nuclei corresponding to healthy cells. This readout served as an internal toxicity control.

[1] = target: T1, human ERG potassium channel (hERG) (Homo sapiens, UniProt Q12809); test: hERG channel tail current recording using in vitro Rapid ICE (automated patch-clamp, QPatch HTX); assay type: cell-based; settings: Table 26
T1 construct: expressed in transfected cells; host or cells: HEK293, stably transfected, tetracycline-inducible promoter
Method: Protocol—Measure of the Effect on hERG Channel by Tail Current Recording Using In Vitro Rapid ICE
The potency of the example compounds in inhibiting human ERG potassium channel (hERG) tail current was assessed in a recombinant HEK293 cell line stably transfected with hERG cDNA under an inducible promoter, using Rapid ICE (rapid ion channel electrophysiology) assay. Rapid ICE is an automated patch-clamp assay utilizing the QPatch HTX system (Sophion Bioscience A/S). Briefly, inducible HEK hERG cells were cultivated in minimum essential medium supplemented with 10% FBS, 1% non-essential amino acids, 1% sodium pyruvate, 2 mM 1-glutamine, 15 μg/mL blasticidin, and 100 μg/mL hygromycin. hERG channel expression induction was obtained by adding 10 μg/mL tetracycline for 24, 48, or 72 h before recordings.
On the day of the experiment, cells were detached with TrypLE and prepared to be loaded on the instrument. Cells were resuspended in 7 mL of Serum-Free Media containing 25 mM Hepes and soybean trypsin inhibitor and immediately placed in the cell storage tank of the machine. The composition of the extracellular buffer was (mM): NaCl 137, KCl 4, CaCl2 1.8, MgCl2 1.0, d-glucose 10, N-2-hydroxyethylpiperazine-N′-2-ethanesulfonic acid (HEPES) 10, pH 7.4 with 1 M NaOH. The composition of the intracellular solution was (mM): KCl 130, MgCl2 1.0, ethylene glycol-bis(β-aminoethyl ether)-N,N,N′,N′-tetraacetic acid (EGTA) 5, MgATP 5, HEPES 10, pH 7.2 with 1 M KOH. The voltage protocol included the following steps: step from −80 to −50 mV for 200 ms, +20 mV for 4.8 s, step to −50 mV for 5 s, then step to the holding potential of −80 mV. Compounds were dissolved in DMSO and diluted in extracellular buffer to achieve final test concentrations (0.3, 3, and 30 μM) in 0.3% DMSO. The voltage protocol was run and recorded continuously during the experiment. The vehicle, corresponding to 0.3% DMSO in extracellular buffer was then applied for 3 min, followed by the test substance in triplicate. The standard combined exposure time was 5 min. The average of tail current amplitude values recorded from four sequential voltage pulses was used to calculate for each cell the effect of the test substance by calculating the residual current (% control) compared with vehicle pretreatment. Data were reported as % inhibition for each concentration tested, and IC50 values were estimated using QPatch software. At least two cells were tested, and even more if results diverged.

[2] = Thermodynamic (Equilibrium) solubility in selected buffer; assay type: physicochemical; settings: aqueous buffer, thermodynamic from solid, Table 25
Method: Protocol—Thermodynamic (Equilibrium) Solubility in Selected Buffer
Example compounds were tested in the Thermodynamic (Equilibrium) solubility in selected buffer assay. The test compound, in powder form, was weighted into a 4 mL glass vial and a calculated volume of selected medium was added to reach the target concentration of the solubility test (1 mg/mL). The solution was then stirred overnight at r.t. protected from the light. The solution was filtered through a 0.45 μm PTFE membrane at ambient temperature. An aliquot of the resulting filtrate was quantified using UPLC-UV method described below against a reference solution of the test compound, 0.8 mg/mL in DMSO. Media compositions: Phosphate buffer 50 mM (pH=2.0) […] of NaH2PO4, H2O in 200 mL of ultrapurified water adjusted at pH 2 with phosphoric acid 85%; Acetate buffer 50 mM (pH=5.5) 820 mg of anhydrous sodium acetate in 200 mL of ultrapurified water adjusted at pH 5.5 with acetic acid 99.8%; Phosphate buffer 50 mM (pH=7.4) 40.5 mL of Na2HPO4 0.1 M solution+9.5 mL of NaH2PO4 0.1 M solution. Analytical conditions: UPLC-UV-MS analyses were performed with a Waters Acquity UPLC HClass-PDA-QDa system using a reverse phase Acquity BEH C18 column (2.1 mm×50 mm, 1.7 μm; temperature: 40° C.) and a gradient of 10-95% B (A=0.1% formic acid in H2O; B=0.05% formic acid in ACN) over 1.8 min then 100% B for 0.8 min, with an injection volume of 0.4 μL at flow rate of 0.65 mL/min. UV chromatograms were recorded at 220 nm, 254 nm and 290 nm using a photo diode array detector. Mass spectra were recorded in the 150 to 900 M/Z range at a sampling rate of 10 scans per sec using a QDa detector. Data were integrated using Empower®3 software. Data Analysis: Equilibrium solubility of the test compound in the selected medium was calculated through the ratio of the surface area of the UV chromatographic peak of the compound in the filtrate to the surface of the UV chromatographic peak of the compound in the reference solution.

T1 sequence (Q12809 whole entry): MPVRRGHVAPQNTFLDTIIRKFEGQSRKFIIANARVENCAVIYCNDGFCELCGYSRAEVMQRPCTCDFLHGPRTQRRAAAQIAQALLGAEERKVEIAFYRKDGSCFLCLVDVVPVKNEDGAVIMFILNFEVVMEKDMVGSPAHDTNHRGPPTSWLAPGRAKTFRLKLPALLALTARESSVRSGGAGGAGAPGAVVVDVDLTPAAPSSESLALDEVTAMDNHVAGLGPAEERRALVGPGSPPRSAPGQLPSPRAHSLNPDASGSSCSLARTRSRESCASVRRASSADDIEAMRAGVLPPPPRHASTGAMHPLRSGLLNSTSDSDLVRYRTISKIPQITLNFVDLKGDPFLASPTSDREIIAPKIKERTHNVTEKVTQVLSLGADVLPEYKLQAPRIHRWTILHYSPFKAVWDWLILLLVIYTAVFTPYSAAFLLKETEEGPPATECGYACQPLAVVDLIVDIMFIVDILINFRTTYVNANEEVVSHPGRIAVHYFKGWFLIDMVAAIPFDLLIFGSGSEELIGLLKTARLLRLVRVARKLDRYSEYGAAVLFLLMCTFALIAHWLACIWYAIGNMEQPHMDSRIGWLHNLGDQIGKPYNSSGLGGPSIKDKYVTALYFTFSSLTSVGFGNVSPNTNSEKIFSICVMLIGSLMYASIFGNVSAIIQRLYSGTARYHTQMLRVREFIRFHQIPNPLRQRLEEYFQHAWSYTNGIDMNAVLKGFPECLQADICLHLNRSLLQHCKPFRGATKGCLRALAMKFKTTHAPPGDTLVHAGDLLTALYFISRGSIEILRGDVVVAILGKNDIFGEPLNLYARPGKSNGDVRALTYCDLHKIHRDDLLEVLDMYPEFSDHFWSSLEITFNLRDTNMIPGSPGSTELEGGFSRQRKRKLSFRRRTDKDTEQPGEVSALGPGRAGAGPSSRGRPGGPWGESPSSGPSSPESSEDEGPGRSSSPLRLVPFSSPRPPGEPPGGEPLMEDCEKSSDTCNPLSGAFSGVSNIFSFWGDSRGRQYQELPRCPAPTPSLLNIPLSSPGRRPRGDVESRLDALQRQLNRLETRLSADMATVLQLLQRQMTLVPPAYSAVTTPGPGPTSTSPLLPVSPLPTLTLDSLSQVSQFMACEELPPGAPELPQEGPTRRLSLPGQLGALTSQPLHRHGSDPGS

IC50 (ATF4) [nM]	solubility ([2]; acetate buffer 50 mM, pH 5.5, read-out: Solubility (μg/mL) pH 5.5) [µg/mL]	solubility ([2]; phosphate buffer 50 mM, pH 2.0, read-out: Solubility (μg/mL) pH 2.0) [µg/mL]	solubility ([2]; phosphate buffer 50 mM, pH 7.4, read-out: Solubility (μg/mL) pH 7.4) [µg/mL]	SMILES	IC50 [1] [nM]
2000 to 15000				O=C(COc1ccc(Cl)c(F)c1)N[C@H]1CC[C@H](c2nnc(-c3ccc(Cl)cc3)o2)NC1=O (single isomer, unassigned) [Example 108]	1 to 1000
1 to 500				O=C(COc1ccc(Cl)c(F)c1)N[C@H]1CC[C@H](c2nnc(-c3ccc(C(F)(F)F)cc3)o2)NC1 [Example 2, 2-(4-chloro-3-fluorophenoxy)-N-[(3S,6R)-6-{5-[4-(trifluoromethyl)phenyl]-1,3,4-oxadiazol-2-yl}piperidin-3-yl]acetamide]	1 to 1000
1 to 500				O=C(COc1cnc(Cl)c(F)c1)N[C@H]1CC[C@H](c2nnc(-c3ccc(Cl)cc3)o2)NC1 [Example 7, 2-[(6-chloro-5-fluoropyridin-3-yl)oxy]-N-[(3S,6R)-6-[5-(4-chlorophenyl)-1,3,4-oxadiazol-2-yl]piperidin-3-yl]acetamide]	1 to 1000
1 to 500				O=C(COc1ccc(Cl)c(Cl)c1)N[C@H]1CC[C@H](c2nnc([C@H]3C[C@@H](OC(F)(F)F)C3)o2)NC1 [Example 9, 2-(3,4-dichlorophenoxy)-N-[(3S,6R)-6-{5-[(1s,3s)-3-(trifluoromethoxy)cyclobutyl]-1,3,4-oxadiazol-2-yl}piperidin-3-yl]acetamide]	1000 to 5000
1 to 500				COc1cc(OCC(=O)N[C@H]2CC[C@H](c3nnc(OCCOC(F)(F)F)o3)NC2)ccc1C(F)(F)F [Example 15, 2-[3-methoxy-4-(trifluoromethyl)phenoxy]-N-[(3S,6R)-6-{5-[2-(trifluoromethoxy)ethoxy]-1,3,4-oxadiazol-2-yl}piperidin-3-yl]acetamide]	> 5000

Continued, compound first:

SMILES	IC50 (ATF4) [nM]	solubility ([2]; acetate buffer 50 mM, pH 5.5, read-out: Solubility (μg/mL) pH 5.5) [µg/mL]	solubility ([2]; phosphate buffer 50 mM, pH 2.0, read-out: Solubility (μg/mL) pH 2.0) [µg/mL]	solubility ([2]; phosphate buffer 50 mM, pH 7.4, read-out: Solubility (μg/mL) pH 7.4) [µg/mL]	IC50 [1] [nM]
O=C(COc1ccc(Cl)c(F)c1)N[C@@H]1CC[C@H](c2nnc([C@H]3C[C@@H](OC(F)(F)F)C3)o2)NC1=O (racemic) [Example 38, rac-2-(4-chloro-3-fluorophenoxy)-N-[(3R,6R)-2-oxo-6-{5-[(1s,3s)-3-(trifluoromethoxy)cyclobutyl]-1,3,4-oxadiazol-2-yl}piperidin-3-yl]acetamide]	2000 to 15000				> 5000
O=C(COc1ccc(Cl)c(F)c1)N[C@H]1CC[C@H](c2nnc(OCCO[C@@H]3CC3(F)F)o2)NC1 (single isomer, unassigned) [Example 102]	500 to 2000				1000 to 5000
O=C(COc1ccc(Cl)c(F)c1)N[C@H]1CC[C@H](c2nnc(OCCO[C@H]3CC3(F)F)o2)NC1 (single isomer, unassigned) [Example 103]	1 to 500				> 5000
O=C(COc1ccc(Cl)c(F)c1)N[C@H]1CC[C@H](c2nnc([C@H]3C[C@@H](OC4CC4)C3)o2)NC1 (single isomer, unassigned) [Example 105]	500 to 2000				> 5000
C[C@@H](Oc1ccc(Cl)cc1)C(=O)N[C@H]1CC[C@H](c2nnc(-c3ccc(C(F)(F)F)cc3)o2)NC1 (single isomer, unassigned) [Example 106]	2000 to 15000				1000 to 5000
O=C(COc1ccc(Cl)c(F)c1)N[C@@H]1CC[C@@H](c2nnc(-c3ccc(Cl)cc3)o2)NC1=O (single isomer, unassigned) [Example 109]	1 to 500				1 to 1000
CC(Oc1ccc(Cl)cc1)C(=O)N[C@H]1CC[C@H](c2nnc(-c3ccc(C(F)(F)F)cc3)o2)NC1 (stereo partly drawn) [Example 4, 2-(4-chlorophenoxy)-N-[(3S,6R)-6-{5-[4-(trifluoromethyl)phenyl]-1,3,4-oxadiazol-2-yl}piperidin-3-yl]propanamide]					1 to 1000
O=C(COc1ccc(C(F)(F)F)c(Cl)c1)N[C@H]1CC[C@H](c2nnc([C@H]3C[C@@H](OC(F)(F)F)C3)o2)NC1 [Example 10, 2-[3-chloro-4-(trifluoromethyl)phenoxy]-N-[(3S,6R)-6-{5-[(1s,3s)-3-(trifluoromethoxy)cyclobutyl]-1,3,4-oxadiazol-2-yl}piperidin-3-yl]acetamide]	1 to 500				1000 to 5000
N#Cc1cc(OCC(=O)N[C@H]2CC[C@H](c3nnc(OCCOC(F)(F)F)o3)NC2)ccc1Cl [Example 29, 2-(4-chloro-3-cyanophenoxy)-N-[(3S,6R)-6-{5-[2-(trifluoromethoxy)ethoxy]-1,3,4-oxadiazol-2-yl}piperidin-3-yl]acetamide]	500 to 2000				> 5000
O=C(COc1ccc(Cl)c(F)c1)N[C@@H]1CN[C@@H](c2nnc(-c3ccc(Cl)cc3)o2)C1 [Example 31, 2-(4-chloro-3-fluorophenoxy)-N-[(3S,5R)-5-[5-(4-chlorophenyl)-1,3,4-oxadiazol-2-yl]pyrrolidin-3-yl]acetamide]	2000 to 15000				1 to 1000
O=C(COc1ccc(Cl)c(F)c1)N[C@H]1CC[C@H](c2nnc(OCCC(F)(F)F)o2)NC1 [Example 33, 2-(4-chloro-3-fluorophenoxy)-N-[(3S,6R)-6-[5-(3,3,3-trifluoropropoxy)-1,3,4-oxadiazol-2-yl]piperidin-3-yl]acetamide]	1 to 500				1000 to 5000
Cn1nc(-c2nnc([C@H]3CC[C@H](NC(=O)COc4ccc(Cl)c(F)c4)CN3)o2)cc1Cl [Example 51, N-[(3S,6R)-6-[5-(5-chloro-1-methyl-1H-pyrazol-3-yl)-1,3,4-oxadiazol-2-yl]piperidin-3-yl]-2-(4-chloro-3-fluorophenoxy)acetamide]	500 to 2000	4 (≈ 8.52 µM)	945 (≈ 2010 µM)	2 (≈ 4.26 µM)	
